Reference: US11338007B2, “Combination formulation of three antiviral compounds” (priority 2016, dated 2022)

Tests used:
[1] = Stress studies: stability of tablets made with stressed VEL SSD/VOX SSD (water, residual solvent, peroxide, reprocessing, potency; Tables 16-21); format: physicochemical; conditions: for total impurities/degradation products: all conditions
Method: The impact of the following stressors on the physical and chemical stability of the sofosbuvir/velpatasvir SSD/voxilaprevir SSD tablets were evaluated:
(i) Voxilaprevir SSD and velpatasvir SSD, and sofosbuvir/velpatasvir SSD/voxilaprevir SSD tablet water content;
(ii) Copovidone peroxide content in velpatasvir SSD and in voxilaprevir SSD (iii) Reprocessed velpatasvir SSD and voxilaprevir SSD;
(iv) Voxilaprevir SSD and velpatasvir SSD potency (varying the ratio of velpatasvir or voxilaprevir to copovidone); and
(v) Seeding sofosbuvir/velpatasvir SSD/voxilaprevir SSD tablets with crystalline voxilaprevir Form VIII and Form X drug substances.

[2] = Impact of desiccant and packaging configuration on tablet stability (Tables 24A-24C); format: physicochemical; conditions: for I/D (%) / LS (%): tablets;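 as to all read-outs here: stability of tablets stored with different desiccant amounts and packaging configurations, evaluating physical and chemical stability plus dissolution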
[3] = tablets from SSDs with copovidone peroxides 544 ppm (VEL SSD), 655 ppm (VOX SSD), closed, 1 g desiccant, 40° C./75% RH, 12 weeks
[4] = tablets from SSDs with copovidone peroxides 544 ppm (VEL SSD), 655 ppm (VOX SSD), open, no desiccant, 40° C./75% RH, 4 weeks
[5] = tablets from VEL SSD 6.0% residual ethanol, VOX SSD 2.1% residual acetone, Initial, time 0
[6] = tablets from VEL SSD 6.0% residual ethanol, VOX SSD 2.1% residual acetone, closed, 1 g desiccant, 25° C./60% RH, 12 weeks
[7] = tablets from VEL SSD 6.0% residual ethanol, VOX SSD 2.1% residual acetone, closed, 1 g desiccant, 40° C./75% RH, 4 weeks
[8] = tablets from VEL SSD 6.0% residual ethanol, VOX SSD 2.1% residual acetone, closed, 1 g desiccant, 40° C./75% RH, 12 weeks
[9] = tablets from VEL SSD 6.0% residual ethanol, VOX SSD 2.1% residual acetone, open, no desiccant, 40° C./75% RH, 4 weeks
[10] = tablets from VEL SSD 7.0% water, VOX SSD 3.2% water, Initial, time 0
[11] = tablets from VEL SSD 7.0% water, VOX SSD 3.2% water, closed, 1 g desiccant, 25° C./60% RH, 12 weeks
[12] = tablets from VEL SSD 7.0% water, VOX SSD 3.2% water, closed, 1 g desiccant, 40° C./75% RH, 4 weeks
[13] = tablets from VEL SSD 7.0% water, VOX SSD 3.2% water, closed, 1 g desiccant, 40° C./75% RH, 12 weeks
[14] = tablets from twice reprocessed VEL SSD and VOX SSD, Initial, time 0
[15] = tablets from twice reprocessed VEL SSD and VOX SSD, closed, 1 g desiccant, 25° C./60% RH, 12 weeks
[16] = tablets from twice reprocessed VEL SSD and VOX SSD, closed, 1 g desiccant, 40° C./75% RH, 4 weeks
[17] = tablets from twice reprocessed VEL SSD and VOX SSD, closed, 1 g desiccant, 40° C./75% RH, 12 weeks
[18] = tablets from twice reprocessed VEL SSD and VOX SSD, open, no desiccant, 40° C./75% RH, 4 weeks
[19] = closed, 1 g desiccant, 25° C./60% RH, 12 weeks
[20] = closed, 1 g desiccant, 25° C./60% RH, 24 weeks
[21] = closed, 1 g desiccant, 40° C./75% RH, 4 weeks
[22] = closed, 1 g desiccant, 40° C./75% RH, 12 weeks
[23] = closed, 1 g desiccant, 40° C./75% RH, 24 weeks
[24] = closed, 3 g desiccant, 25° C./60% RH, 12 weeks
[25] = closed, 3 g desiccant, 25° C./60% RH, 24 weeks
[26] = closed, 3 g desiccant, 40° C./75% RH, 4 weeks
[27] = closed, 3 g desiccant, 40° C./75% RH, 12 weeks
[28] = closed, 3 g desiccant, 40° C./75% RH, 24 weeks
[29] = closed, no desiccant, 25° C./60% RH, 12 weeks
[30] = closed, no desiccant, 25° C./60% RH, 24 weeks
[31] = closed, no desiccant, 40° C./75% RH, 4 weeks
[32] = closed, no desiccant, 40° C./75% RH, 12 weeks
[33] = closed, no desiccant, 40° C./75% RH, 24 weeks
[34] = desiccant study, Initial, time 0

CC(C)OC(=O)C(C)N[P@](=O)(OC[C@H]1O[C@@H](n2ccc(=O)[nH]c2=O)[C@](C)(F)[C@@H]1O)Oc1ccccc1 (stereo in doubt) [sofosbuvir, (S)-isopropyl 2-(((S)-(((2R,3R,4R,5R)-5-(2,4-dioxo-3,4-dihydropyrimidin-1(2H)-yl)-4-fluoro-3-hydroxy-4-methyltetrahydrofuran-2-yl)methoxy)(phenoxy)phosphoryl)amino)propanoate]
102.1%: LS (%) [2, 34]
99.1%: LS (%) [1, 17]
100.3%: LS (%) [1, 4] | LS (%) [1, 16] | LS (%) [2, 24] | LS (%) [2, 32]
99.3%: LS (%) [2, 19] | LS (%) [2, 29]
101.2%: LS (%) [1, 5]
101.7%: LS (%) [2, 23]
101.6%: LS (%) [1, 12] | LS (%) [2, 25]
102.3%: LS (%) [2, 28]
100.4%: LS (%) [1, 13] | LS (%) [2, 20] | LS (%) [2, 33]
0.0%: Total Imp./Deg. (%) ([1]; tablets from SSDs with copovidone peroxides 544 ppm (VEL SSD), 655 ppm (VOX SSD), closed, 1 g desiccant, 40° C./75% RH, 4 weeks) | Total Imp./Deg. (%) [1, 3] | Total Imp./Deg. (%) [1, 4] | total impurities/degradation products ([1]; tablets from VEL SSD 6.0% residual ethanol and VOX SSD 2.1% residual acetone) | Total Imp./Deg. (%) [1, 5] | Total Imp./Deg. (%) [1, 6] | Total Imp./Deg. (%) [1, 7] | Total Imp./Deg. (%) [1, 8] | Total Imp./Deg. (%) [1, 9] | total impurities/degradation products ([1]; tablets from VEL SSD 7.0% and VOX SSD 3.2% water content) | Total Imp./Deg. (%) [1, 10] | Total Imp./Deg. (%) [1, 11] | Total Imp./Deg. (%) [1, 12] | Total Imp./Deg. (%) [1, 13] | Total Imp./Deg. (%) [1, 14] | total impurities/degradation products ([1]; tablets from twice reprocessed VEL SSD and VOX SSD) | Total Imp./Deg. (%) [1, 15] | Total Imp./Deg. (%) [1, 16] | Total Imp./Deg. (%) [1, 17] | Total Imp./Deg. (%) [1, 18] | total impurities/degradation products ([2]; desiccant study (0, 1, 3 g), all conditions, 6 months) | I/D (%) [2, 19] | I/D (%) [2, 20] | I/D (%) [2, 21] | I/D (%) [2, 22] | I/D (%) [2, 23] | I/D (%) [2, 24] | I/D (%) [2, 25] | I/D (%) [2, 26] | I/D (%) [2, 27] | I/D (%) [2, 28] | I/D (%) [2, 29] | I/D (%) [2, 30] | I/D (%) [2, 31] | I/D (%) [2, 32] | I/D (%) [2, 33] | I/D (%) [2, 34]
99.9%: LS (%) [1, 11] | LS (%) [1, 15] | LS (%) [2, 27]
100.5%: LS (%) [1, 6] | LS (%) [1, 10]
100.0%: LS (%) [2, 21] | LS (%) [2, 26]
98.9%: LS (%) [1, 3]
101.4%: LS (%) [2, 31]
100.7%: LS (%) [1, 14]
101.5%: LS (%) [1, 7]
99.4%: LS (%) [2, 22]
100.9%: LS (%) [1, 8] | LS (%) [1, 9]
100.2%: LS (%) [2, 30]
96.4%: LS (%) [1, 18]
